Key:
[1] = tested on: primary human ciliary muscle cells (h-CM); assay: Total prostaglandin (PG) release from primary h-CM cells (EIA); assay type: cell-based; settings: Homo sapiens, 1 h, 1 hour at 37° C., class symbols (in μM)
In short: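 Confluent primary h-CM cells, serum-starved (0.8% FBS) 24 h, were exposed to a 9-point concentration series (0.1 nM-10 μM) of bradykinin or BK agonist for 1 hour at 37° C. Total PG released was then quantified by EIA.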

[2] = molecular target: T1, recombinant human bradykinin B2 receptor (Homo sapiens, UniProt P30411); assay: [3H]-BK competition radioligand binding to human cloned B2 receptor (CHO cell membranes); settings: 0.2 nM [3H]-bradykinin, CHO membranes, 60 min 23° C.; mean ± SEM or single value; Ki from IC50 by Cheng-Prusoff; read-out: [3H]-BK Binding to Human Cloned B2 Receptor (Ki)
T1 construct: expressed in transfected cells; host or cells: Chinese hamster ovary (CHO) cells, membrane homogenates
T1 sequence (P30411 1-391): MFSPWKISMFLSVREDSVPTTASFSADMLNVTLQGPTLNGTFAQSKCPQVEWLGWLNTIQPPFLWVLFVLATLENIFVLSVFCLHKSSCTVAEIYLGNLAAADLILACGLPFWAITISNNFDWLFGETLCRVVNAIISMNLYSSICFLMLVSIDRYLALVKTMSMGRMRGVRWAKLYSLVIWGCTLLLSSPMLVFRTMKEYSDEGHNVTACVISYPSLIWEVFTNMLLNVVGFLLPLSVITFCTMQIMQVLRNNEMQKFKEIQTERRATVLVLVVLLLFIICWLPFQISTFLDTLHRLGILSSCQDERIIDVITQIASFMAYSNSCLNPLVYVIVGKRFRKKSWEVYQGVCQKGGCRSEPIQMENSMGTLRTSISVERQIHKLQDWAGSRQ

[3] = molecular target: T2, BK receptors in human ciliary muscle cells (h-CM) (Homo sapiens, UniProt P30411); assay: Functional assay measuring [Ca2+]i mobilization (FLIPR) in h-CM cells; assay type: cell-based; settings: class symbols (in μM), read-out: CaM (EC50)
T2 construct: h-CM cells expressing BK receptors were seeded; endogenous in cells; host or cells: human ciliary muscle (h-CM) cells
T2 sequence (P30411 1-391): T1 sequence (P30411 1-391)
In short: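 Human ciliary muscle cells loaded 1 h at 23 °C with FLIPR calcium dye in HBSS, 20 mM HEPES, 2.5 mM probenecid, pH 7.4. EC50 by 4-parameter fit.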

| Compound | EC50 [1] [µM] | Ki [2] [µM] | EC50 [3] [µM] |
| --- | --- | --- | --- |
| CNC(=O)c1ccc(OCC(=O)NCC(=O)N(C)c2ccc(Cl)c(COc3cccc4c3nc(OC)n4Cc3ccccn3)c2Cl)cc1 [Compound 68] | 0.1 to 1 | 0.0595 | < 0.1 |
| CCOC(=O)NC1=NCC(CCC(=O)NCC(=O)N(C)c2ccc(Cl)c(COc3cccc4c3nc(OC)n4Cc3ccccn3)c2Cl)CN1 (stereo not drawn) [Compound 9, Ethyl (5-(3-((2-((2,4-dichloro-3-(((2-methoxy-1-(pyridin-2-ylmethyl)-1H-benzo[d]imidazol-4-yl)oxy)methyl)phenyl)(methyl)amino)-2-oxoethyl)amino)-3-oxopropyl)-1,4,5,6-tetrahydropyrimidin-2-yl)carbamate] | 0.1 to 1 | 0.667 ± 0.101 | < 0.1 |
| CNC(=O)C1=NCC(CCC(=O)NCC(=O)N(C)c2ccc(Cl)c(COc3cccc4c3nc(OC)n4Cc3ccccn3)c2Cl)CN1 (stereo not drawn) [Compound 41, 5-(3-((2-((2,4-dichloro-3-(((2-methoxy-1-(pyridin-2-ylmethyl)-1H-benzo[d]imidazol-4-yl)oxy)methyl)phenyl)(methyl)amino)-2-oxoethyl)amino)-3-oxopropyl)-N-methyl-1,4,5,6-tetrahydropyrimidine-2-carboxamide] | 0.1 to 1 | 0.3 | < 0.1 |
| CNC(=O)C1CNCC(CC(=O)NCC(=O)N(C)c2ccc(Cl)c(COc3cccc4c3nc(OC)n4Cc3ccccn3)c2Cl)C1 (stereo not drawn) [Compound 81] | > 1 | 0.108 | < 0.1 |
| COc1nc2c(OCc3c(Cl)ccc(N(C)C(=O)CNC(=O)CN4CCOC(C(=O)NCCO)C4)c3Cl)cccc2n1Cc1ccccn1 (stereo not drawn) [Compound 80] | 0.1 to 1 | 0.279 | < 0.1 |
| CNC(=O)[C@H]1CCCN(CC(=O)NCC(=O)N(C)c2ccc(Cl)c(COc3cccc4c3nc(OC)n4Cc3ccccn3)c2Cl)C1 [Compound 36, (S)-1-(2-(2-((2,4-dichloro-3-((2-methoxy-1-(pyridin-2-ylmethyl)-1H-benzo[d]imidazol-4-yloxy)methyl)phenyl)(methyl)amino)-2-oxoethylamino)-2-oxoethyl)-N-methylpiperidine-3-carboxamide] | 0.1 to 1 | 0.22 | < 0.1 |
| COC(=O)Nc1ccc(CCC(=O)NCC(=O)N(C)c2ccc(C)c(COc3cccc4c3nc(OC)n4Cc3ccccn3)c2C)cn1 [Compound 4, methyl (5-(3-((2-((3-(((2-methoxy-1-(pyridin-2-ylmethyl)-1H-benzo[d]imidazol-4-yl)oxy)methyl)-2,4-dimethylphenyl)(methyl)amino)-2-oxoethyl)amino)-3-oxopropyl)pyridin-2-yl)carbamate] | > 1 | 0.158 | 0.1 to 1 |
| COc1nc2c(OCc3c(Cl)ccc(N(C)C(=O)CNC(=O)CCc4ccc(C(=O)NCCO)cc4)c3Cl)cccc2n1Cc1ccccn1 [Compound 65] | < 0.1 | 0.0984 | < 0.1 |
| CNC(=O)c1ccc(CCC(=O)NCC(=O)N(C)c2ccc(Cl)c(COc3cccc4c3nc(OC)n4Cc3ccccn3)c2Cl)cn1 [Compound 64, 5-(3-((2-((2,4-dichloro-3-(((2-methoxy-1-(pyridin-2-ylmethyl)-1H-benzo[d]imidazol-4-yl)oxy)methyl)phenyl)(methyl)amino)-2-oxoethyl)amino)-3-oxopropyl)-N-methylpicolinamide] | < 0.1 | 0.0403 | < 0.1 |
| COc1nc2c(OCc3c(Cl)ccc(N(C)C(=O)CNC(=O)CCC4CN=C(N)NC4)c3Cl)cccc2n1Cc1ccccn1 (stereo not drawn) [Compound 63] | > 1 | 1.19 | < 0.1 |
| CNC(=O)C1CCCN(CC(=O)NCC(=O)N(C)c2ccc(Cl)c(COc3cccc4c3nc(OC)n4Cc3ccccn3)c2Cl)C1 (stereo not drawn) [Compound 35, 1-(2-(2-((2,4-dichloro-3-((2-methoxy-1-(pyridin-2-ylmethyl)-1H-benzo[d]imidazol-4-yloxy)methyl)phenyl)(methyl)amino)-2-oxoethylamino)-2-oxoethyl)-N-methylpiperidine-3-carboxamide] | 0.1 to 1 | 0.396 | < 0.1 |
| CNC(=O)C1CCN(CCC(=O)NCC(=O)N(C)c2ccc(Cl)c(COc3cccc4c3nc(OC)n4Cc3ccccn3)c2Cl)CC1 [Compound 11] | > 1 | 0.391 ± 0.035 | < 0.1 |
| CCc1nc2c(OCc3c(Cl)ccc(N(C)C(=O)CNC(=O)CCN4CCN(C(=O)NC)CC4)c3Cl)cccc2n1Cc1ccccn1 [Compound 19, 4-(3-((2-((2,4-dichloro-3-(((2-ethyl-1-(pyridin-2-ylmethyl)-1H-benzo[d]imidazol-4-yl)oxy)methyl)phenyl)(methyl)amino)-2-oxoethyl)amino)-3-oxopropyl)-N-methylpiperazine-1-carboxamide] | > 1 | 0.262 ± 0.011 | < 0.1 |
| CNC(=O)c1ccc(CCC(=O)NCC(=O)N(C)c2ccc(Cl)c(COc3cccc4c3nc(OC)n4Cc3ccccn3)c2Cl)cc1 [Compound 33, 4-(3-((2-((2,4-dichloro-3-(((2-methoxy-1-(pyridin-2-ylmethyl)-1H-benzo[d]imidazol-4-yl)oxy)methyl)phenyl)(methyl)amino)-2-oxoethyl)amino)-3-oxopropyl)-N-methylbenzamide] | < 0.1 | 0.007 ± 0.001 | < 0.1 |

Next, values leading:

| EC50 [1] [µM] | Ki [2] [µM] | EC50 [3] [µM] | Compound |
| --- | --- | --- | --- |
| < 0.1 | 0.025 ± 0.008 | < 0.1 | COc1nc2c(OCc3c(Cl)ccc(N(C)C(=O)CNC(=O)CCc4ccc(NC(C)=O)nc4)c3Cl)cccc2n1Cc1ccccn1 [Compound 32, 3-(6-acetamidopyridin-3-yl)-N-(2-((2,4-dichloro-3-(((2-methoxy-1-(pyridin-2-ylmethyl)-1H-benzo[d]imidazol-4-yl)oxy)methyl)phenyl)(methyl)amino)-2-oxoethyl)propanamide] |
| < 0.1 | 0.054 | < 0.1 | COCCNC(=O)c1ccc(CCC(=O)NCC(=O)N(C)c2ccc(Cl)c(COc3cccc4c3nc(OC)n4Cc3ccccn3)c2Cl)cc1 [Compound 1, 4-(3-((2-((2,4-dichloro-3-(((2-methoxy-1-(pyridin-2-ylmethyl)-1H-benzo[d]imidazol-4-yl)oxy)methyl)phenyl)(methyl)amino)-2-oxoethyl)amino)-3-oxopropyl)-N-(2-methoxyethyl)benzamide] |
| < 0.1 | 0.077 | < 0.1 | COc1nc2c(OCc3c(Cl)ccc(N(C)C(=O)CNC(=O)[C@H]4CCN(C(=O)OC(C)(C)C)C4)c3Cl)cccc2n1Cc1ccccn1 [Compound 34, (S)-tert-butyl 3-(2-((2,4-dichloro-3-((2-methoxy-1-(pyridin-2-ylmethyl)-1H-benzo[d]imidazol-4-yloxy)methyl)phenyl)(methyl)amino)-2-oxoethylcarbamoyl)pyrrolidine-1-carboxylate] |
| < 0.1 | 0.101 | < 0.1 | COC(=O)Nc1ccc(CCC(=O)NCC(=O)N(C)c2ccc(Cl)c(COc3cccc4c3nc(OC)n4Cc3ccccn3)c2Cl)cn1 [Compound 2, methyl (5-(3-((2-((2,4-dichloro-3-(((2-methoxy-1-(pyridin-2-ylmethyl)-1H-benzo[d]imidazol-4-yl)oxy)methyl)phenyl)(methyl)amino)-2-oxoethyl)amino)-3-oxopropyl)pyridin-2-yl)carbamate] |
| < 0.1 | 0.178 | < 0.1 | CNC(=O)c1ccc(C(=O)NCC(=O)N(C)c2ccc(Cl)c(COc3cccc4c3nc(OC)n4Cc3ccccn3)c2Cl)cn1 [Compound 69] |
| < 0.1 | 0.068 ± 0.016 | < 0.1 | COc1nc2c(OCc3c(Cl)ccc(N(C)C(=O)CNC(=O)CCN4CCC(NC(C)=O)CC4)c3Cl)cccc2n1Cc1ccccn1 [Compound 8, 3-(4-acetamidopiperidin-1-yl)-N-(2-((2,4-dichloro-3-(((2-methoxy-1-(pyridin-2-ylmethyl)-1H-benzo[d]imidazol-4-yl)oxy)methyl)phenyl)(methyl)amino)-2-oxoethyl)propanamide] |
| < 0.1 | 0.003 | 0.1 to 1 | CC(=O)Nc1ccc(CCC(=O)NCC(=O)N(C)c2ccc(Cl)c(COc3cccc4c(OCc5ccccn5)cc(C)nc34)c2Cl)cc1 [Compound 28, 3-(4-acetamidophenyl)-N-(2-((2,4-dichloro-3-(((2-methyl-4-(pyridin-2-ylmethoxy)quinolin-8-yl)oxy)methyl)phenyl)(methyl)amino)-2-oxoethyl)propanamide] |
| < 0.1 | 0.04 | < 0.1 | CNC(=O)[C@@H]1CN(CC(=O)NCC(=O)N(C)c2ccc(Cl)c(COc3cccc4c3nc(OC)n4Cc3ccccn3)c2Cl)CCO1 [Compound 45, (S)-4-(2-((2-((2,4-dichloro-3-(((2-methoxy-1-(pyridin-2-ylmethyl)-1H-benzo[d]imidazol-4-yl)oxy)methyl)phenyl)(methyl)amino)-2-oxoethyl)amino)-2-oxoethyl)-N-methylmorpholine-2-carboxamide] |

— patent US8252793B2, “Bradykinin receptor agonists and uses thereof to treat ocular hypertension and glaucoma” (Alcon Research, Ltd., priority 2010, dated 2012)
